In one data set the test system is HIV-1 IIIB. In words: Time-of-drug-addition study, HIV. Type of data set: cell-based. As to conditions: MT-4 cells; for time of addition after infection at which antiviral activity is completely lost: p24 Ag ELISA after 31 h, 421 µM dextran sulfate 8000, 6 µM AMD3100. The method, then:
The time-of-drug-addition (TOA) experiments were performed as described. In brief, 1×10^6 MT-4 cells/ml were infected with HIV-1 X4 IIIB at a multiplicity of infection (MOI) of 0.5. The compounds were added at different time points in a range from 0 to 26 h post-infection. After 31 h, HIV-1 replication was detected by p24 HIV-1 Ag ELISA as described above. The reference compounds were added at 100 times their EC50-values, as obtained in the MT-4 cell antiviral assay.
In general terms: An ELISA detects its analyte on a solid surface through an enzyme-linked reagent.

The test system of data set [1] is HIV-1 NL4.3 binding to CD4+ SupT1 cells. In kind it is cell-based. The conditions noted are these: LabyA1 9.6 µM, sCD4 10 µg/ml, AMD3100 12 µM; no compound MFI 9.8, background 3.9.
Another data set relates to HIV-1 NL4.3. In words: Pre-incubation of MT-4 cells with compound, wash, then HIV-1 NL4.3 infection. In kind it is cell-based. The conditions noted are these: MT-4 cells pre-incubated 2 h at 37°C, washed, infected with HIV-1 NL4.3; 5 days; control 100% CPE.
The next data set deals with HSV-2 TK^-. In words: Anti-HSV CPE assay in HEL, summary. In kind it is cell-based. The conditions noted are these: Human alphaherpesvirus 2, HEL, read-out: Median EC50.
The test system of a further data set is HSV-2 strain G. In words: Time-of-drug-addition study, HSV-2. In kind it is cell-based. As to conditions: HEL cells; LabyA1 19 µM, ACV 35 µM; after 3 days. On the procedure:
TOA experiments for HSV-2 were performed identically as the viral replication assays, but each compound separately (LabyA1 or ACV) was added together with the virus (0 h) or after 2 h post-infection. The reference compound was added at least 100 times its EC50-value, as obtained in the HEL cell line (Table 3).

The test system of data set [2] is HSV-1 wild-type KOS (reference strain). Briefly: microbe, parasite or virus in culture. The conditions noted are these: Human alphaherpesvirus 1, HEL.
Data set [3] deals with HSV-1 wild-type RV-174 (clinical isolate). Briefly: microbe, parasite or virus in culture. As to conditions: Human alphaherpesvirus 1, HEL.
Data set [4] relates to HSV-1 wild-type RV-175 (clinical isolate). In words: microbe, parasite or virus in culture. As to conditions: Human alphaherpesvirus 1, HEL.
Data set [5] deals with HSV-1 wild-type C559142 (clinical isolate). Briefly: microbe, parasite or virus in culture. The conditions noted are these: Human alphaherpesvirus 1, HEL.
The subject of data set [6] is HSV-2 wild-type G (reference strain). In words: microbe, parasite or virus in culture. The conditions noted are these: Human alphaherpesvirus 2, HEL.
The subject of data set [7] is HSV-2 wild-type RV-124 (clinical isolate). Briefly: microbe, parasite or virus in culture. The conditions noted are these: Human alphaherpesvirus 2, HEL.
Data set [8] concerns HSV-2 wild-type RV-24 (clinical isolate). Briefly: microbe, parasite or virus in culture. The conditions noted are these: Human alphaherpesvirus 2, HEL.
A further data set relates to HSV-1 wild-type. Briefly: microbe, parasite or virus in culture. As to conditions: Human alphaherpesvirus 1, HEL, read-out: Median EC50.
The subject of another data set is HSV-1 TK^-. In words: microbe, parasite or virus in culture. The conditions noted are these: Human alphaherpesvirus 1, HEL, read-out: Median EC50.
For the next data set, the system named is HSV-2 wild-type. In words: microbe, parasite or virus in culture. The conditions noted are these: Human alphaherpesvirus 2, HEL, read-out: Median EC50.
For data set [9], the system named is HSV-2 TK^- RV-129 (clinical isolate). Briefly: microbe, parasite or virus in culture. In kind it is cell-based. As to conditions: Human alphaherpesvirus 2, HEL.
For data set [10], the system named is HSV-1 TK^- RV-294 (clinical isolate). Briefly: microbe, parasite or virus in culture. The conditions noted are these: Human alphaherpesvirus 1, HEL.
For data set [11], the system named is HSV-1 TK^- RV-179 (clinical isolate). Briefly: microbe, parasite or virus in culture. As to conditions: Human alphaherpesvirus 1, HEL.
The subject of data set [12] is HSV-1 TK^- RV-117 (clinical isolate). Briefly: microbe, parasite or virus in culture. As to conditions: Human alphaherpesvirus 1, HEL.
Data set [13] concerns HSV-2 TK^- BA19026589 (clinical isolate). Briefly: microbe, parasite or virus in culture. The conditions noted are these: Human alphaherpesvirus 2, HEL.
Another data set has as its system herpes virus. Briefly: Anti-herpes virus activity of griffithsin in vitro. In kind it is cell-based.
The next data set relates to HIV. Details: method as in PMID 15613479, PMID 17669213. As to conditions: cited from earlier work.
Another data set has as its system PBMCs. Briefly: Activation markers CD25 and CD69 on PBMCs (flow cytometry). In kind it is cell-based. As to conditions: 3 days, LabyA1 9.6 µM, PHA 0.016 µM. On the procedure: The effects of 9.6 µM LabyA1 and 0.016 µM PHA on the expression levels of the cellular activation markers CD25 and CD69 on PBMCs was measured after 3 days of incubation at 37°C. After washing with PBS/FCS2%, cells were incubated with anti-CD4 conjugated with PerCP (BD Biosciences) and co-stained with the PE-conjugated mAbs anti-CD25 or anti-CD69 (both BD Biosciences) for 30 min at 4°C. For aspecific background staining, cells were incubated with SimulTest™ Control (IgGγ1-FITC/IgGγ2a-PE). After washing, and fixation with 1% formaldehyde solution, samples were analyzed using the FACSCalibur and CellQuest software (BD Biosciences).

Another data set deals with HIV-1 R5 BaL in PBMCs. Briefly: Susceptibility of pre-treated PBMCs for HIV-1 infection. As to conditions: washed, HIV-1 BaL, day 7.

Where two headings read alike, the source gives them in different places.

Protocol for HIV-1 R5 BaL in PBMCs: The next day, cells were collected, extensively washed in culture medium, resuspended (5×10^5 cells/450 µl) and seeded in a 48-well plate. Immediately afterwards, 50 µl of HIV-1 R5 strain BaL (500 pg/well) was added and cells were cultures for 7 days. Supernatant was collected 7 days post virus infection and viral replication was determined by p24 HIV-1 Ag ELISA.

For the compound `c1cc(CN2CCCNCCNCCCNCC2)ccc1CN1CCCNCCNCCCNCC1` [AMD3100], the “time of addition after infection at which antiviral activity is completely lost” value with HIV-1 IIIB turned out to be 2 h. The “virus binding, mean fluorescence intensity (MFI) of anti-gp120 (9205) mAb” value in data set [1] was determined as 9.5. In addition, in the data set with HIV-1 NL4.3, the “% CPE after pre-incubation of cells and removal of compound” value was found to be 13.5±5.5 % CPE.
Broadly, the EC50 is the concentration giving half of the maximal effect. In the case of `Nc1nc2c(ncn2COCCO)c(=O)[nH]1` [Acyclovir, acyclovir], the EC50 in the data set on HSV-2 TK^- is 52 µM; in [2], 0.18 ± 0.09 µM; in data set [3], 0.31 ± 0.02 µM; in [4], 0.18 ± 0.03 µM; in [5] it was 0.09 ± 0.02 µM; in data set [6], 0.27 ± 0.01 µM. The EC50 in [7] is 0.4 ± 0.06 µM; in data set [8], 0.13 ± 0.09 µM; with HSV-1 wild-type, 0.18 µM; with HSV-1 TK^-, > 79 µM; with HSV-2 wild-type, 0.27 µM. For the same compound, in the data set on HSV-2 strain G, the “HSV-2 induced CPE, compound given simultaneously with virus (0 h)” value is reported as “no CPE or viral replication were observed”. Further, the “antiviral activity, compound added after 2 h adsorption period” value in the data set with HSV-2 strain G is listed as “still active”.
On to `Nc1ccn(C[C@@H](CO)OCP(=O)(O)O)c(=O)n1` [Cidofovir, cidofovir], for which the EC50 stood at 0.55 ± 0.2 µM in data set [9]; 0.75 µM in the data set with HSV-2 TK^-; 0.48 ± 0.11 µM in data set [2]; 1.3 ± 0.1 µM in data set [3]; 1.1 ± 0.1 µM in [4]; 0.53 ± 0.09 µM in data set [5]. Besides, the half-maximal effective concentration (EC50) in data set [10] turned out to be 0.3 ± 0.02 µM; in data set [11], 0.39 ± 0.12 µM; in data set [12], 0.5 ± 0.12 µM; in [6], 0.6 ± 0.1 µM; in [7], 1.3 ± 0.3 µM; in data set [8], 1.1 ± 0.3 µM. Moreover, the EC50 turned out to be 0.95 ± 0.24 µM in [13], 0.82 µM with HSV-1 wild-type, 0.39 µM in the data set with HSV-1 TK^- and 1.1 µM with HSV-2 wild-type.
Regarding `Cc1ccnc2c1NC(=O)c1cccnc1N2C1CC1` [nevirapine], in the data set with HIV-1 IIIB (7.5 µM nevirapine), the “time of addition post-infection up to which full activity is kept” value was 4 h.
For the compound `C[C@H](Cn1cnc2c(N)ncnc21)OCP(=O)(O)O` [tenofovir], the EC50 in data set [6] (read-out: EC50 against HSV-2) is > 200 µM.
In the case of Griffithsin, the “anti-herpes virus activity in vitro” value in the data set with herpes virus was “lacks anti-herpes virus activity in vitro”. Besides, the anti-HIV activity result in the data set with HIV was “pM range”.
Regarding dextran sulfate 8000, the “time of addition after infection at which antiviral activity is completely lost” value with HIV-1 IIIB is 1 h.
Regarding enfuvirtide [T20], in the data set with HIV-1 NL4.3, the “% CPE after pre-incubation of cells and removal of compound” value is 72.6±13.4 % CPE.
With “phytohemagglutinin [PHA, reference compound]”, in the data set on PBMCs (untreated 1.4±0.8%), the “percentage of CD4+CD69+ cells” value came out at 30.9±5.5%. Further, the “percentage of CD4+CD25+ cells” value in the data set with PBMCs (untreated 10.7±3.2%) is reported as 37.2±6.6%. Moreover, the figures for the “p24 HIV-1 Ag production after pre-treatment” value in the data set with HIV-1 R5 BaL in PBMCs (PBMCs pre-treated 24 h with 0.016 µM) and in the data set on HIV-1 R5 BaL in PBMCs (PBMCs pre-treated 24 h with 0.078 µM) were 125.08 ± 37.81 ng/mL and 169.54 ± 35.22 ng/mL, respectively.

(Values after PMC3665789 (PLoS ONE, 2013).)
